Experimental data published in patent publication US10640495B2, “Heterocycle derivatives having TrkA inhibitory activity” (Shionogi & Co., Ltd., priority 2015, dated 2020).

These molecules were tested against human TrkA (Homo sapiens (Human), UniProt P04629) (assay: Human TrkA inhibition assay (Test Example 2)). Settings: Table 152, human TrkA inhibition; read-out: IC50_nM.
Format: biochemical
Experimental: Seven point five μL per well of human TrkA (PV3144, Lifetechnologies, final concentration: 1 nmol/L) suspended in the assay buffer (100 mmol/L 4-(2-hydroxyethyl)-1-piperazineethanesulfonic acid (HEPES), 10 mmol/L magnecium chloride, 0.003 vol % Brij-35, 0.004 vol % Tween20 and 1 mmol/L dithiothreitol (DTT)) was applied in a 384 well plate and the plate was pre-incubated for 15 min at room temperature with 0.4 μL of each compound (final concentration: 200 μmol/L-1 pmol/L) dissolved in DMSO. Then, fluorescent substrate (FL-peptide 27, 760424, PerkinElmer, final concentration: 1.5 μmol/L) and ATP (final concentration 500 μmol/L) dissolved in the assay buffer was added in each well. After the incubation of 120 min at 37° C., fifteen μL of termination buffer (100 mmol/L HEPES, 40 mmol/L ethylenediaminetetraacetic acid (EDTA), 10 mmol/L magnecium chloride, 0.003 vol % Brij-35, 0.004 vol % Tween20, 1 mmol/L DTT and 0.16 vol % Coating Reagent 3) was added in each well to stop the enzyme reaction. Fluorescent intensities (FI) of phosphorylated and non-phosphorylated fluorescent substrates were measured by LabChip EZReader II (Caliper LifeSciences, Inc.), and conversion ratio (CR) was calculated by the following formula-1. The CR in the well applied with DMSO alone was used as a negative control and the CR in the well without applying TrkA was used as a positive control. The inhibitory effect of each compound on TrkA phosphorylation was calculated by the following formula-2. CR (%)=(FI of phosphorylated substrate/(FI of phosphorylated substrate+FI of non-phosphorylated substrate))×100 (Formula-1) Phosphorylation inhibition (%)=(1−(CR with compound treatment−CR of positive control)/(CR of negative control−CR of positive control))×100 (Formula-2)
IC50 values (nmol/L) were determined by the logistic regression using the inhibition data in 10 points of 3-fold dilution series at a compound concentration range of 20 nmol/L to 1 pmol/L, or 10 points of 3-fold dilution series at the range of 2 μmol/L to 0.1 nmol/L, or 10 points of 3-fold dilution series at the range of 200 μmol/L to 10 nmol/L, or 15 points of 3-fold dilution series at the range of 200 μmol/L to 0.04 nmol/L.
The evaluation results of the compounds in the present invention are indicated as follows. IC50 values of 0 to 100 nM, 100 to 1000 nM and over 1000 nM were shown as “A”, “B” and “C”, respectively.

Chain of human TrkA (P04629 440-796): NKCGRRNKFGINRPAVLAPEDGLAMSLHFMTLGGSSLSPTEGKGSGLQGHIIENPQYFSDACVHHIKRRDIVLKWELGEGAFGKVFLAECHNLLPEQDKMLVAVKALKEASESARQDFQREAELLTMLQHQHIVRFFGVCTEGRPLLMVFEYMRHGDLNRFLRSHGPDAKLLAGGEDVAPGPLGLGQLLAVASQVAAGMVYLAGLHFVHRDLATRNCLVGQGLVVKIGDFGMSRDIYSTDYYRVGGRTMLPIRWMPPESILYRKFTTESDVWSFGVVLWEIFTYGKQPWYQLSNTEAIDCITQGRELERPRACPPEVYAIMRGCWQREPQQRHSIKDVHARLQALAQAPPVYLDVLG

IC50 [nM]	SMILES
< 100	COCCN1C[C@@H](NC(=O)Nc2c(C)c(C3=CCN(C(=O)OC(C)(C)C)CC3)nn2-c2ccccc2)[C@H](c2ccc(F)c(F)c2)O1 (racemic) [Compound I-29]
< 100	COCCN1C[C@@H](NC(=O)Nc2c(C)c(-c3cnc4ncnn4c3)nn2-c2ccccc2)[C@H](c2ccc(F)c(F)c2)O1 (racemic) [Compound I-44]
< 100	COCCN1C[C@@H](NC(=O)Nc2c(C)c(-c3cnc(C)nc3)nn2-c2ccccc2)[C@H](c2ccc(F)c(F)c2)O1 (racemic) [Compound I-26]

Same assay, conditions: Table 153, human TrkA inhibition; read-out: IC50

IC50 [nM]	SMILES
< 100	COCCN1C[C@@H](NC(=O)Nc2c(C)c(-c3cnc4c(c3)ncn4C)nn2-c2ccccc2)[C@H](c2ccnc(F)c2)O1 (racemic) [Compound I-164]
< 100	COCCN1C[C@@H](NC(=O)Nc2c(C)c(-c3cnn(C)c3)nn2-c2ccc(F)cc2)[C@H](c2ccc(F)c(F)c2)O1 (racemic) [Compound I-87]
< 100	COCCN1C[C@@H](NC(=O)Nc2c(C)c(-c3ccc(C#N)nc3)nn2-c2ccccc2)[C@H](c2ccc(F)c(F)c2)O1 (racemic) [Compound I-129]
< 100	COCCN1C[C@@H](NC(=O)Nc2c(C)c(-c3cnc(OC)c(C(=O)NC4CCS(=O)(=O)CC4)c3)nn2-c2ccccc2)[C@H](c2cnc(OC)c(F)c2)O1 (racemic) [Compound I-104]
< 100	COCCN1C[C@@H](NC(=O)Nc2c(C)c(-c3cnc4cnn(C)c4c3)nn2-c2ccccc2)[C@H](c2ccnc(F)c2)O1 (racemic) [Compound I-63]
< 100	COCCN1C[C@@H](NC(=O)Nc2c(C)c(-c3cc(CO)c(=O)n(C)c3)nn2-c2ccccc2)[C@H](c2ccc(F)c(F)c2)O1 (racemic) [Compound I-125]
< 100	COCCN1C[C@@H](NC(=O)Nc2c(C)c(-c3cccc(C(=O)OC(C)(C)C)c3)nn2-c2ccccc2)[C@H](c2ccc(F)c(F)c2)O1 (racemic) [Compound I-50]

Same assay, conditions: Table 154, human TrkA inhibition; read-out: IC50

IC50 [nM]	SMILES
< 100	COCCN1C[C@@H](NC(=O)Nc2c(C)c(-c3cnc(OC)c(C(=O)NOC)c3)nn2-c2ccccc2)[C@H](c2ccnc(F)c2)O1 (racemic) [Compound I-260]
< 100	COCCN1C[C@@H](NC(=O)Nc2c(C)c(-c3cnc4c(c3)NCCO4)nn2-c2ccccc2)[C@H](c2ccnc(F)c2)O1 (racemic) [Compound I-306]
< 100	Cc1c(-c2cnc3c(cnn3C)c2)nn(-c2ccccc2)c1NC(=O)N[C@@H]1CN(C)O[C@H]1c1ccc(F)c(F)c1 (racemic) [Compound I-207]
< 100	COCCN1C[C@@H](NC(=O)Nc2c(C)c(-c3cnc4c(ccc(=O)n4C)c3)nn2-c2ccccc2)[C@H](c2ccnc(F)c2)O1 (racemic) [Compound I-246]
< 100	COCCN1C[C@@H](NC(=O)Nc2c(C)c(-c3cnc4c(c3)nc(C#N)n4C)nn2-c2ccccc2)[C@H](c2ccnc(F)c2)O1 (racemic) [Compound I-220]
< 100	COCCN1C[C@@H](NC(=O)Nc2c(C)c(-c3cnc(C)s3)nn2-c2ccccc2)[C@H](c2ccnc(F)c2)O1 (racemic) [Compound I-287]
< 100	CNS(=O)(=O)c1cc(-c2nn(-c3ccccc3)c(NC(=O)N[C@@H]3CN(CCOC)O[C@H]3c3ccc(F)c(F)c3)c2C)cn(C)c1=O (racemic) [Compound I-177]

Same assay, conditions: Table 155, human TrkA inhibition; read-out: IC50

IC50 [nM]	SMILES
< 100	COCCN1C[C@@H](NC(=O)Nc2c(C)c(-c3ccc4nccn4c3)nn2-c2ccccc2)[C@H](c2ccc(F)c(F)c2)O1 [Compound I-460]
< 100	COCCN1C[C@@H](NC(=O)Nc2c(C)c(-c3cnc(N4CC(C)(O)C4)nc3)nn2-c2ccccc2)[C@H](c2ccnc(F)c2)O1 (racemic) [Compound I-479]
< 100	COCCN1C[C@@H](NC(=O)Nc2c(C)c(-c3cnc(N4CCN(CC#N)CC4)nc3)nn2-c2ccccc2)[C@H](c2cc(F)nc(F)c2)O1 (racemic) [Compound I-419]
< 100	COCCN1C[C@@H](NC(=O)Nc2c(C)c(-c3cnc(-c4cnoc4)nc3)nn2-c2ccccc2)[C@H](c2ccnc(F)c2)O1 (racemic) [Compound I-476]
< 100	COCCN1C[C@@H](NC(=O)Nc2c(C)c(-c3cnc(N4CCC5(COC5)C4)nc3)nn2-c2ccccc2)[C@H](c2ccnc(F)c2)O1 (racemic) [Compound I-482]
< 100	COCCN1C[C@@H](NC(=O)Nc2c(C)c(-c3cnc(N4CCNOCC4)nc3)nn2-c2ccccc2)[C@H](c2ccnc(F)c2)O1 (racemic) [Compound I-507]
< 100	COCCN1C[C@@H](NC(=O)Nc2c(C)c(-c3ccc4nc(C)nn4c3)nn2-c2ccccc2)[C@H](c2ccnc(F)c2)O1 [Compound I-359]
< 100	COCCN1C[C@@H](NC(=O)Nc2c(C)c(-c3cnc(OC)c(F)c3)nn2-c2ccccc2)[C@H](c2ccnc(F)c2)O1 (racemic) [Compound I-367]
< 100	COCCN1C[C@@H](NC(=O)Nc2c(C)c(OCc3cnn(C)c3)nn2-c2ccccc2)[C@H](c2ccnc(F)c2)O1 (racemic) [Compound I-472]
100 to 1000	COCCN1C[C@@H](NC(=O)Nc2c(C)c(Oc3ccnc(F)c3)nn2-c2ccccc2)[C@H](c2ccnc(F)c2)O1 (racemic) [Compound I-442]

Same assay, conditions: Table 156, human TrkA inhibition; read-out: IC50

IC50 [nM]	SMILES
< 100	CCN1C[C@@H](NC(=O)Nc2c(C)c(OCC3CCNCC3)nn2-c2ccccc2)[C@H](c2ccc(F)c(F)c2)O1 (racemic) [Compound I-559]
< 100	Cc1c(OCC2CCN(C)CC2)nn(-c2ccccc2)c1NC(=O)N[C@@H]1CN(CC(F)F)O[C@H]1c1ccc(F)c(F)c1 (racemic) [Compound I-568]
< 100	CNC(=O)c1cc(-c2nn(-c3ccccc3)c(NC(=O)N[C@@H]3CN(CC(F)F)O[C@H]3c3ccc(F)c(F)c3)c2C)cnc1OC (racemic) [Compound I-551]
< 100	COCCN1C[C@@H](NC(=O)Nc2c(C)c(OC3CNC3)nn2-c2ccccc2)[C@H](c2ccc(F)c(F)c2)O1 [Compound I-574]

Same assay, conditions: Table 157, human TrkA inhibition; read-out: IC50

IC50 [nM]	SMILES
< 100	CCCN1C[C@@H](NC(=O)Nc2c(C)c(OCC3CCN(C)CC3)nn2-c2ccccc2)[C@H](c2ccc(F)c(F)c2)O1 (racemic) [Compound I-654]
< 100	CCN1C[C@@H](NC(=O)Nc2c(C)c(OCCCCN(C)C)nn2-c2ccccc2)[C@H](c2ccc(F)c(F)c2)O1 (racemic) [Compound I-662]
< 100	COCCN1C[C@@H](NC(=O)Nc2c(C)c(OCC(O)CO)nn2-c2ccccc2)[C@H](c2ccc(F)c(F)c2)O1 (stereo partly shown) [Compound I-615]
100 to 1000	CCN1C[C@@H](NC(=O)Nc2c(C)c(CCN(C)C)nn2-c2ccccc2)[C@H](c2ccc(F)c(F)c2)O1 (racemic) [Compound I-642]
< 100	CCN1C[C@@H](NC(=O)Nc2c(C)c(-c3ccn4ccnc4c3)nn2-c2ccccc2)[C@H](c2ccc(F)c(F)c2)O1 (racemic) [Compound I-625]
< 100	CCCCN1C[C@@H](NC(=O)Nc2c(C)c(-c3cnc(OC)nc3)nn2-c2ccccc2)[C@H](c2ccc(F)c(F)c2)O1 (racemic) [Compound I-677]

Same assay, conditions: human TrkA 1 nmol/L, ATP 500 μmol/L, 120 min at 37° C.; read-out: IC50 values (TrkA phosphorylation inhibition)

IC50 [nM]	SMILES
4.6	COCCN1C[C@@H](NC(=O)Nc2c(C)c(-c3cnn(C)c3)nn2-c2ccccc2)[C@H](c2cc(F)nc(F)c2)O1 (racemic) [Compound I-217]
22	COc1ncc(-c2nn(-c3ccccc3)c(NC(=O)N[C@@H]3CN(CC(F)F)O[C@H]3c3ccc(F)c(F)c3)c2C)cn1 (racemic) [Compound I-526]
0.81	COCCN1C[C@@H](NC(=O)Nc2c(C)c(-c3ccc4c(cnn4C)c3)nn2-c2ccccc2)[C@H](c2ccc(F)c(F)c2)O1 (racemic) [Compound I-22]
